According to ChEMBL document CHEMBL5500345, “Discovery of a novel homoisoflavonoid derivative 5g for anti-osteoclastic bone loss via targeting FGFR1” (Eur J Med Chem, 2024):
Activity calls are given as the source filed them. The rule behind the calls is not given here.

Columns and labels:
BMDM [1] = test: Anti-osteoclastogenic activity in C57/BL6 mouse BMDM cells assessed as inhibition of RANKL-induced osteoclast differentiation at 5 uM incubated for 4 days in presence of M-CSF by TRAP staining based microscopic analysis relative to control; type: functional; conditions: 96 h, time 4 day
BMDM [2] = test: Anti-osteoclastogenic activity in C57/BL6 mouse BMDM cells assessed as inhibition of RANKL-induced osteoclast differentiation at 10 uM incubated for 4 days in presence of M-CSF by TRAP staining based microscopic analysis relative to control; type: functional; conditions: 96 h, time 4 day
BMDM [3] = test: Anti-osteoclastogenic activity in C57/BL6 mouse BMDM cells assessed as inhibition of RANKL-induced osteoclast differentiation by measuring number of TRAP-positive cells incubated for 4 days in presence of M-CSF by TRAP staining based microscopic analysis; type: functional, cell-based; conditions: 96 h
BMDM [4] = test: Cytotoxicity against C57/BL6 mouse BMDM cells at < 20 uM incubated for 48 hrs by EZ-Cytox cell viability assay; type: toxicity, cell-based
BMDM [5] = test: Anti-osteoclastogenic activity in C57/BL6 mouse BMDM cells assessed as inhibition of RANKL-induced F-actin belt formation incubated for 6 days by F-actin ring assay; type: functional, cell-based; conditions: time 6.0 day
BMDM [6] = test: Anti-osteoclastogenic activity in C57/BL6 mouse BMDM cells assessed as inhibition of RANKL-induced bone resorption number incubated for 6 days by fluorescein amine-labeled calcium phosphate based fluorescence spectramax analysis; type: functional, cell-based; conditions: time 6.0 day
BMDM [7] = test: Anti-osteoclastogenic activity in C57/BL6 mouse BMDM cells assessed as inhibition of RANKL-induced bone resorption pit incubated for 6 days by fluorescein amine-labeled calcium phosphate based fluorescence spectramax analysis; type: functional, cell-based; conditions: time 6.0 day
BMDM [8] = test: Anti-osteoclastogenic activity in C57/BL6 mouse BMDM cells assessed as inhibition of RANKL-induced osteoclast formation at 10 uM incubated for 4 days in presence of M-CSF by TRAP staining based microscopic analysis; type: functional, cell-based; conditions: time 4.0 day
[9] = Cytotoxicity against BMP2-induced mouse Pre-Osteoblast cells at < 20 uM incubated for 48 hrs by EZ-Cytox cell viability assay; type: toxicity, cell-based
Pre-Osteoblast [10] = test: Induction of osteogenesis in mouse Pre-Osteoblast cells assessed as increase in ALP expression at < 20 uM incubated for 9 days by BCIP/NBT staining based analysis; type: functional, cell-based; conditions: time 9.0 day
Pre-Osteoblast [11] = test: Induction of osteogenesis in mouse Pre-Osteoblast cells assessed as effect on ALP mRNA expression by qRT-PCR analysis; type: functional, cell-based
Pre-Osteoblast [12] = test: Induction of osteogenesis in mouse Pre-Osteoblast cells assessed as effect on OSX mRNA expression by qRT-PCR analysis; type: functional, cell-based
Pre-Osteoblast [13] = test: Induction of osteogenesis in mouse Pre-Osteoblast cells assessed as effect on RUNX2 mRNA expression by qRT-PCR analysis; type: functional, cell-based
BMDM [14] = test: Anti-osteoclastogenic activity in M-CSF/RANKL-induced C57/BL6 mouse BMDM cells assessed as downregulation of NFATc1 mRNA expression at 10 uM incubated upto 3 days by qRT-PCR analysis; type: functional, cell-based; conditions: time <= 3.0 day
BMDM [15] = test: Anti-osteoclastogenic activity in M-CSF/RANKL-induced C57/BL6 mouse BMDM cells assessed as downregulation of ACP5 mRNA expression at 10 uM incubated upto 3 days by qRT-PCR analysis; type: functional, cell-based; conditions: time <= 3.0 day
BMDM [16] = test: Anti-osteoclastogenic activity in M-CSF/RANKL-induced C57/BL6 mouse BMDM cells assessed as downregulation of Dc-stamp mRNA expression at 10 uM incubated upto 3 days by qRT-PCR analysis; type: functional, cell-based; conditions: time <= 3.0 day
BMDM [17] = test: Anti-osteoclastogenic activity in M-CSF/RANKL-induced C57/BL6 mouse BMDM cells assessed as downregulation of ATP6V0D2 mRNA expression at 10 uM incubated upto 3 days by qRT-PCR analysis; type: functional, cell-based; conditions: time <= 3.0 day
BMDM [18] = test: Anti-osteoclastogenic activity in M-CSF/RANKL-induced C57/BL6 mouse BMDM cells assessed as downregulation of MMP9 mRNA expression at 10 uM incubated upto 3 days by qRT-PCR analysis; type: functional, cell-based; conditions: time <= 3.0 day
BMDM [19] = test: Anti-osteoclastogenic activity in M-CSF/RANKL-induced C57/BL6 mouse BMDM cells assessed as downregulation of CTSK mRNA expression at 10 uM incubated upto 3 days by qRT-PCR analysis; type: functional, cell-based; conditions: time <= 3.0 day
BMDM [20] = test: Anti-osteoclastogenic activity in M-CSF/RANKL-induced C57/BL6 mouse BMDM cells assessed as downregulation of c-FOS mRNA expression at 10 uM incubated upto 3 days by qRT-PCR analysis; type: functional, cell-based; conditions: time <= 3.0 day
BMDM [21] = test: Anti-osteoclastogenic activity in M-CSF/RANKL-induced C57/BL6 mouse BMDM cells assessed as downregulation of CTSK protein expression at 10 uM incubated upto 3 days by Western blotting analysis; type: functional, cell-based; conditions: time <= 3.0 day
[22] = Toxicity in OVX-induced osteoporosis C57BL/6 mouse model assessed as change in body weight at 30 mg/kg,po administrated twice daily for 4 weeks; type: organism-based; conditions: in vivo, 672 h
Mus musculus [23] = test: Anti-osteoporosis activity in OVX-induced osteoporosis C57BL/6 mouse model assessed as prevention of bone loss in femur at 15 mg/kg,po administrated twice daily for 4 weeks by micro-CT scanning analysis; type: functional, organism-based
Mus musculus [24] = test: Anti-osteoporosis activity in OVX-induced osteoporosis C57BL/6 mouse model assessed as increase in bone volume in femur at 15 mg/kg,po administrated twice daily for 4 weeks by micro-CT scanning analysis; type: functional, organism-based
Mus musculus [25] = test: Anti-osteoporosis activity in OVX-induced osteoporosis C57BL/6 mouse model assessed as increase in bone mineral density in femur at 15 mg/kg,po administrated twice daily for 4 weeks by micro-CT scanning analysis; type: functional, organism-based
Mus musculus [26] = test: Anti-osteoporosis activity in OVX-induced osteoporosis C57BL/6 mouse model assessed as prevention of bone loss in femur at 30 mg/kg,po administrated twice daily for 4 weeks by micro-CT scanning analysis; type: functional, organism-based
Mus musculus [27] = test: Anti-osteoporosis activity in OVX-induced osteoporosis C57BL/6 mouse model assessed as increase in bone volume in femur at 30 mg/kg,po administrated twice daily for 4 weeks by micro-CT scanning analysis; type: functional, organism-based
Mus musculus [28] = test: Anti-osteoporosis activity in OVX-induced osteoporosis C57BL/6 mouse model assessed as increase in bone mineral density in femur at 30 mg/kg,po administrated twice daily for 4 weeks by micro-CT scanning analysis; type: functional, organism-based
BMDM [29] = test: Anti-osteoclastogenic activity in M-CSF/RANKL-induced C57/BL6 mouse BMDM cells assessed as downregulation of FGFR1 expression at 10 uM incubated upto 3 days by immunoblotting analysis; type: functional, cell-based; conditions: time <= 3.0 day
BMDM [30] = test: Anti-osteoclastogenic activity in M-CSF/RANKL-induced C57/BL6 mouse BMDM cells assessed as downregulation of ERK1 expression at 10 uM incubated upto 3 days by immunoblotting analysis; type: functional, cell-based; conditions: time <= 3.0 day
BMDM [31] = test: Anti-osteoclastogenic activity in M-CSF/RANKL-induced C57/BL6 mouse BMDM cells assessed as downregulation of ERK2 expression at 10 uM incubated upto 3 days by immunoblotting analysis; type: functional, cell-based; conditions: time <= 3.0 day
BMDM [32] = test: Anti-osteoclastogenic activity in M-CSF/RANKL-induced C57/BL6 mouse BMDM cells assessed as downregulation of IkappaBalpha expression at 10 uM incubated upto 3 days by immunoblotting analysis; type: functional, cell-based; conditions: time <= 3.0 day
BMDM [33] = test: Anti-osteoclastogenic activity in M-CSF/RANKL-induced C57/BL6 mouse BMDM cells assessed as downregulation of NF-kappaB expression at 10 uM incubated upto 3 days by immunoblotting analysis; type: functional, cell-based; conditions: time <= 3.0 day

O=c1cc(-c2ccccc2)oc2ccccc12 [FLAVONE]
inhibition at 5 µM (BMDM [1]): 7.11% | inhibition at 10 µM (BMDM [2]): 35.4%

O=c1c(Cc2cc(F)ccc2O)c(-c2ccccc2)oc2ccc(F)cc12
inhibition at 5 µM (BMDM [1]): 40% | inhibition at 10 µM (BMDM [2]): 37.6%

O=c1c(Cc2cccc(F)c2)c(-c2ccccc2)oc2ccccc12
inhibition at 5 µM (BMDM [1]): 22% | inhibition at 10 µM (BMDM [2]): 36.3%

O=c1c(Cc2ccccc2O)c(-c2ccc(-c3ccccc3)cc2)oc2ccccc12
inhibition at 5 µM (BMDM [1]): 37.9% | inhibition at 10 µM (BMDM [2]): 69.3%

CCOc1cccc(Cc2c(-c3ccccc3)oc3ccccc3c2=O)c1O
inhibition at 5 µM (BMDM [1]): 1.08% | inhibition at 10 µM (BMDM [2]): 25%

COc1cc(Oc2ccccc2Cc2c(-c3ccccc3)oc3ccccc3c2=O)cc(OC)c1OC
inhibition at 5 µM (BMDM [1]): 22.7% | inhibition at 10 µM (BMDM [2]): 40.3%

O=c1c(Cc2ccccc2O)c(-c2ccccc2)oc2ccccc12
inhibition at 5 µM (BMDM [1]): 31.5% | inhibition at 10 µM (BMDM [2]): 60.4%

O=c1c(Cc2ccccc2O)c(-c2ccc(Cl)cc2)oc2ccccc12
inhibition at 5 µM (BMDM [1]): 33% | inhibition at 10 µM (BMDM [2]): 36.7%

O=c1c(Cc2ccccc2Oc2ccc(O)cc2)c(-c2ccccc2)oc2ccccc12
inhibition at 5 µM (BMDM [1]): 29.4% | inhibition at 10 µM (BMDM [2]): 55.3%

CS(=O)(=O)c1ccc(Oc2ccccc2Cc2c(-c3ccccc3)oc3ccccc3c2=O)cc1
inhibition at 5 µM (BMDM [1]): 23.2% | inhibition at 10 µM (BMDM [2]): 51.8%

Cc1ccc(S(=O)(=O)Oc2ccccc2Cc2c(-c3ccccc3)oc3ccccc3c2=O)cc1
inhibition at 5 µM (BMDM [1]): 28.9% | inhibition at 10 µM (BMDM [2]): 68.1%

O=c1c(Cc2cc(-c3ccccc3)ccc2O)c(-c2ccccc2)oc2ccccc12
inhibition at 5 µM (BMDM [1]): 25.6% | inhibition at 10 µM (BMDM [2]): 23.7%

O=c1c(Cc2ccccc2)c(-c2ccccc2)oc2ccccc12
inhibition at 5 µM (BMDM [1]): 22.6% | inhibition at 10 µM (BMDM [2]): 30.6%

COc1ccc(-c2oc3ccccc3c(=O)c2Cc2ccccc2O)cc1
inhibition at 5 µM (BMDM [1]): 56.4% | inhibition at 10 µM (BMDM [2]): 79% | IC50 (BMDM [3]): 2390 nM | Activity (BMDM [4]): Non-Toxic | Activity (BMDM [5]): Dose-Dependent Effect | Activity (BMDM [6]): Dose-Dependent Effect | Activity (BMDM [7]): Dose-Dependent Effect | Activity (BMDM [8]): Active | Activity [9]: Non-Toxic | Activity (Pre-Osteoblast [10]): inactive | Activity (Pre-Osteoblast [11]): inactive | Activity (Pre-Osteoblast [12]): inactive | Activity (Pre-Osteoblast [13]): inactive | Activity (BMDM [14]): Active | Activity (BMDM [15]): Active | Activity (BMDM [16]): Active | Activity (BMDM [17]): Active | Activity (BMDM [18]): Active | Activity (BMDM [19]): Active | Activity (BMDM [20]): Active | Activity (BMDM [21]): Active | Activity [22]: Non-Toxic | Activity (Mus musculus [23]): Active | Activity (Mus musculus [24]): Active | Activity (Mus musculus [25]): Active | Activity (Mus musculus [26]): Active | Activity (Mus musculus [27]): Active | Activity (Mus musculus [28]): Active | Activity (BMDM [29]): Active | Activity (BMDM [30]): Active | Activity (BMDM [31]): Active | Activity (BMDM [32]): Active | Activity (BMDM [33]): Active

Cc1ccc(O)c(Cc2c(-c3ccccc3)oc3ccccc3c2=O)c1
inhibition at 5 µM (BMDM [1]): 21.5% | inhibition at 10 µM (BMDM [2]): 32.5%

Cc1ccc(-c2oc3ccc(C)cc3c(=O)c2Cc2cc(C)ccc2O)cc1
inhibition at 5 µM (BMDM [1]): 22.3% | inhibition at 10 µM (BMDM [2]): 23.8%

Cc1ccc(-c2oc3ccccc3c(=O)c2Cc2ccccc2O)cc1
inhibition at 5 µM (BMDM [1]): 34.4% | inhibition at 10 µM (BMDM [2]): 37.8%

CC(C)(C)c1ccc(Oc2ccccc2Cc2c(-c3ccccc3)oc3ccccc3c2=O)cc1
inhibition at 5 µM (BMDM [1]): 11.1% | inhibition at 10 µM (BMDM [2]): 12%

O=c1c(Cc2cc(Br)ccc2O)c(-c2ccccc2)oc2ccc(Br)cc12
inhibition at 5 µM (BMDM [1]): -8.26% | inhibition at 10 µM (BMDM [2]): -4.4%

O=c1c(Cc2ccccc2O)coc2ccccc12
inhibition at 5 µM (BMDM [1]): 12.8% | inhibition at 10 µM (BMDM [2]): 46.7%

CCCCOc1ccccc1Cc1c(-c2ccccc2)oc2ccccc2c1=O
inhibition at 5 µM (BMDM [1]): 19% | inhibition at 10 µM (BMDM [2]): 44.7%

O=c1c(Cc2cc(Br)ccc2O)c(-c2ccccc2)oc2ccccc12
inhibition at 5 µM (BMDM [1]): 22.7% | inhibition at 10 µM (BMDM [2]): 54.5%

COc1ccc(O)c(Cc2c(-c3ccccc3)oc3ccc(OC)cc3c2=O)c1
inhibition at 5 µM (BMDM [1]): 17.6% | inhibition at 10 µM (BMDM [2]): 16.8%

COc1ccc(O)c(Cc2c(-c3ccccc3)oc3ccccc3c2=O)c1
inhibition at 5 µM (BMDM [1]): 36.5% | inhibition at 10 µM (BMDM [2]): 38.2%

O=c1c(Cc2cc(Cl)cc(Cl)c2O)c(-c2ccccc2)oc2ccccc12
inhibition at 5 µM (BMDM [1]): 2.94% | inhibition at 10 µM (BMDM [2]): 14.7%
